According to the supplement of paper PMC11061612:

What was measured:
Carboplatin = compound: C1CC(C1)(C(=O)[O-])C(=O)[O-].N.N.[Pt+2] [Carboplatin]; details: max 10 µM
Outline: (§1)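 Cancer cell lines were dosed for 72 hours (final DMSO typically 0.2%) after 24 hours at 37°C and 5% CO2 in 1536-well plates containing 7.5 μl DMEM/F12 or RPMI with 10% FBS. Viability came from CellTiter-Glo 2.0 luminescence, scaled between blank-well and DMSO-well means, and dose responses were fitted to a two-parameter logistic curve with a non-linear mixed effects model. The single-agent IC50 was obtained from this fit.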

AZD5363 = compound: C1CN(CCC1(C(=O)N[C@@H](CCO)C2=CC=C(C=C2)Cl)N)C3=NC=NC4=C3C=CN4 [AZD5363]; details: max 10 µM
Outline: as §1

AZD1775 = compound: C=CCn1c(=O)c2cnc(Nc3ccc(N4CCN(C)CC4)cc3)nc2n1-c1cccc(C(C)(C)O)n1 [AZD1775]; details: max 3 µM
Outline: as §1

Trametinib = compound: CC(=O)Nc1cccc(-n2c(=O)n(C3CC3)c(=O)c3c(Nc4ccc(I)cc4F)n(C)c(=O)c(C)c32)c1 [Trametinib]; details: max 1 µM
Outline: as §1

Paclitaxel = compound: CC(=O)O[C@H]1C(=O)[C@@]2(C)[C@H]([C@H](OC(=O)c3ccccc3)[C@]3(O)C[C@H](OC(=O)[C@H](O)[C@@H](NC(=O)c4ccccc4)c4ccccc4)C(C)=C1C3(C)C)[C@]1(OC(C)=O)CO[C@@H]1C[C@@H]2O [Paclitaxel]; details: max 3 µM
Outline: as §1

Palbociclib = compound: CC(=O)c1c(C)c2cnc(Nc3ccc(N4CCNCC4)cn3)nc2n(C2CCCC2)c1=O [Palbociclib]; details: max 10 µM
Outline: as §1

AZD1390 = compound: CC(C)n1c(=O)n(C)c2cnc3cc(F)c(-c4ccc(OCCCN5CCCCC5)nc4)cc3c21 [AZD1390]; details: max 0.3 µM
Outline: as §1

Venetoclax = compound: CC1(C)CCC(CN2CCN(c3ccc(C(=O)NS(=O)(=O)c4ccc(NCC5CCOCC5)c([N+](=O)[O-])c4)c(Oc4cnc5[nH]ccc5c4)c3)CC2)=C(c2ccc(Cl)cc2)C1 [Venetoclax]; details: max 1 µM
Outline: as §1

Dasatinib = compound: CC1=C(C(=CC=C1)Cl)NC(=O)C2=CN=C(S2)NC3=CC(=NC(=N3)C)N4CCN(CC4)CCO [Dasatinib]; details: max 2 µM
Outline: as §1

SG3199 = compound: CC1=CN2[C@@H](C1)C=NC3=CC(=C(C=C3C2=O)OC)OCCCCCOC4=C(C=C5C(=C4)N=C[C@@H]6CC(=CN6C5=O)C)OC [SG3199]; details: max 0.001 µM
Outline: as §1

AZD2811 = compound: CCN(CCO)CCCOc1ccc2c(Nc3cc(CC(=O)Nc4cccc(F)c4)[nH]n3)ncnc2c1 [AZD2811]; details: max 1 µM
Outline: as §1

SN-38 = compound: CCc1c2c(nc3ccc(O)cc13)-c1cc3c(c(=O)n1C2)COC(=O)[C@]3(O)CC [SN-38]; details: max 0.3 µM
Outline: as §1

AZD0156 = compound: CN(C)CCCOc1ccc(-c2ccc3ncc4c(c3c2)n(C2CCOCC2)c(=O)n4C)cn1 [AZD0156]; details: max 3 µM
Outline: as §1

AZD4320 = compound: CN(CC[C@H](CSC1=CC=CC=C1)NC2=C(C=C(C=C2)S(=O)(=O)NC(=O)C3=CC=C(C=C3)N4CCC(CC4)[C@H](C5=CC=CC=C5C6=CC=C(C=C6)Cl)O)S(=O)(=O)C(F)(F)F)CCO [AZD4320]; details: max 1 µM
Outline: as §1

Alisertib = compound: COc1cc(Nc2ncc3c(n2)-c2ccc(Cl)cc2C(c2c(F)cccc2OC)=NC3)ccc1C(=O)O [Alisertib]; details: max 10 µM
Outline: as §1

Etoposide = compound: COc1cc([C@@H]2c3cc4c(cc3[C@@H](O[C@@H]3O[C@@H]5CO[C@@H](C)O[C@H]5[C@H](O)[C@H]3O)[C@H]3COC(=O)[C@H]23)OCO4)cc(OC)c1O [Etoposide]; details: max 10 µM
Outline: as §1

Gefitinib = compound: COc1cc2ncnc(Nc3ccc(F)c(Cl)c3)c2cc1OCCCN1CCOCC1 [Gefitinib]; details: max 10 µM
Outline: as §1

Prexasertib = compound: COc1cccc(OCCCN)c1-c1cc(Nc2cnc(C#N)cn2)n[nH]1 [Prexasertib]; details: max 1 µM
Outline: as §1

Doxorubicin = compound: COc1cccc2c1C(=O)c1c(O)c3c(c(O)c1C2=O)C[C@@](O)(C(=O)CO)C[C@@H]3O[C@H]1C[C@H](N)[C@H](O)[C@H](C)O1 [Doxorubicin]; details: max 1 µM
Outline: as §1

AZD5153 = compound: COc1nnc2ccc(N3CCC(c4ccc(OCCN5CCN(C)C(=O)[C@H]5C)cc4)CC3)nn12 [AZD5153]; details: max 1 µM
Outline: as §1

Lapatinib = compound: CS(=O)(=O)CCNCc1ccc(-c2ccc3ncnc(Nc4ccc(OCc5cccc(F)c5)c(Cl)c4)c3c2)o1 [Lapatinib]; details: max 10 µM
Outline: as §1

AZD8186 = compound: C[C@@H](Nc1cc(F)cc(F)c1)c1cc(C(=O)N(C)C)cc2c(=O)cc(N3CCOCC3)oc12 [AZD8186]; details: max 10 µM
Outline: as §1

Crizotinib = compound: C[C@@H](Oc1cc(-c2cnn(C3CCNCC3)c2)cnc1N)c1c(Cl)ccc(F)c1Cl [Crizotinib]; details: max 10 µM
Outline: as §1

Savolitinib = compound: C[C@@H](c1ccc2nccn2c1)n1nnc2ncc(-c3cnn(C)c3)nc21 [Savolitinib]; details: max 1 µM
Outline: as §1

AZD6738 = compound: C[C@@H]1COCCN1C2=NC(=NC(=C2)C3(CC3)[S@](=N)(=O)C)C4=C5C=CNC5=NC=C4 [AZD6738]; details: max 10 µM
Outline: as §1

AZD5991 = compound: Cc1c2c(nn1C)CSCc1cc(n(C)n1)CSc1cc(c3ccccc3c1)OCCCc1c(C(=O)O)n(C)c3c-2c(Cl)ccc13 [AZD5991]; details: max 1 µM
Outline: as §1

AZD7648 = compound: Cc1cc2ncnn2cc1Nc1ncc2c(n1)n(C1CCOCC1)c(=O)n2C [AZD7648]; details: max 10 µM
Outline: as §1

Taselisib = compound: Cc1nc(-c2cn3c(n2)-c2ccc(-c4cnn(C(C)(C)C(N)=O)c4)cc2OCC3)n(C(C)C)n1 [Taselisib]; details: max 10 µM
Outline: as §1

Selumetinib = compound: Cn1cnc2c(F)c(Nc3ccc(Br)cc3Cl)c(C(=O)NOCCO)cc21 [Selumetinib]; details: max 10 µM
Outline: as §1

SRA737 = compound: N#Cc1cnc(Nc2cc(NC[C@H]3CNCCO3)c(C(F)(F)F)cn2)cn1 [SRA737]; details: max 10 µM
Outline: as §1

MK-2206 = compound: NC1(c2ccc(-c3nc4ccn5c(=O)[nH]nc5c4cc3-c3ccccc3)cc2)CCC1 [MK-2206]; details: max 10 µM
Outline: as §1

Gemcitabine = compound: Nc1ccn([C@@H]2O[C@H](CO)[C@@H](O)C2(F)F)c(=O)n1 [Gemcitabine]; details: max 0.3 µM
Outline: as §1

[1] = compound: O=C(Nc1ccc2[nH]nc(-c3ccncc3)c2c1)[C@@H]1CCN(CC(=O)N2CCN(c3ccc(-c4ncccn4)cc3)CC2)C1; details: max 5 µM
Outline: as §1

Olaparib = compound: O=C(c1cc(Cc2n[nH]c(=O)c3ccccc23)ccc1F)N1CCN(C(=O)C2CC2)CC1 [Olaparib]; details: max 10 µM
Outline: as §1

5-Fluorouracil = compound: O=c1[nH]cc(F)c(=O)[nH]1 [5-Fluorouracil]; details: max 20 µM
Outline: as §1

Cell Line	IC50, cell viability 72 h (Carboplatin)	IC50, cell viability 72 h (AZD5363)	IC50, cell viability 72 h (AZD1775)	IC50, cell viability 72 h (Trametinib)	IC50, cell viability 72 h (Paclitaxel)	IC50, cell viability 72 h (Palbociclib)	IC50, cell viability 72 h (AZD1390)	IC50, cell viability 72 h (Venetoclax)	IC50, cell viability 72 h (Dasatinib)	IC50, cell viability 72 h (SG3199)	IC50, cell viability 72 h (AZD2811)	IC50, cell viability 72 h (SN-38)	IC50, cell viability 72 h (AZD0156)	IC50, cell viability 72 h (AZD4320)	IC50, cell viability 72 h (Alisertib)	IC50, cell viability 72 h (Etoposide)	IC50, cell viability 72 h (Gefitinib)	IC50, cell viability 72 h (Prexasertib)	IC50, cell viability 72 h (Doxorubicin)	IC50, cell viability 72 h (AZD5153)	IC50, cell viability 72 h (Lapatinib)	IC50, cell viability 72 h (AZD8186)	IC50, cell viability 72 h (Crizotinib)	IC50, cell viability 72 h (Savolitinib)	IC50, cell viability 72 h (AZD6738)	IC50, cell viability 72 h (AZD5991)	IC50, cell viability 72 h (AZD7648)	IC50, cell viability 72 h (Taselisib)	IC50, cell viability 72 h (Selumetinib)	IC50, cell viability 72 h (SRA737)	IC50, cell viability 72 h (MK-2206)	IC50, cell viability 72 h (Gemcitabine)	IC50, cell viability 72 h [1]	IC50, cell viability 72 h (Olaparib)	IC50, cell viability 72 h (5-Fluorouracil)
NB69 (Neuroblastoma)	> 10 µM	> 10 µM	0.444 µM	0.00307 µM	0.015 µM	0.491 µM	> 0.3 µM	> 1 µM	0.141 µM	> 0.001 µM	0.47 µM	0.00216 µM	> 3 µM	0.226 µM	0.238 µM	0.166 µM	> 10 µM	0.0899 µM	0.0772 µM	0.0377 µM	9.9 µM	7.65 µM	2.54 µM	> 1 µM	3.13 µM	0.201 µM	> 10 µM	0.487 µM	0.232 µM	> 10 µM	> 10 µM	0.016 µM	0.0272 µM	> 10 µM	8.72 µM
NCI-H358 (Lung Adenocarcinoma)	> 10 µM	> 10 µM	> 3 µM	0.147 µM	0.0281 µM	> 10 µM	> 0.3 µM	> 1 µM	> 2 µM	> 0.001 µM	> 1 µM	> 0.3 µM	> 3 µM	> 1 µM	> 10 µM	> 10 µM	> 10 µM	0.0466 µM	> 1 µM	> 1 µM	> 10 µM	> 10 µM	> 10 µM	> 1 µM	> 10 µM	> 1 µM	> 10 µM	3.47 µM	> 10 µM	> 10 µM	> 10 µM	> 0.3 µM	> 5 µM	> 10 µM	> 20 µM
NCI-H727 (Other Solid Carcinomas)	> 10 µM	> 10 µM	2.6 µM	0.0392 µM	> 3 µM	> 10 µM	> 0.3 µM	> 1 µM	> 2 µM	> 0.001 µM	> 1 µM	> 0.3 µM	> 3 µM	> 1 µM	> 10 µM	> 10 µM	> 10 µM	0.0759 µM	> 1 µM	> 1 µM	> 10 µM	> 10 µM	> 10 µM	> 1 µM	> 10 µM	> 1 µM	> 10 µM	2.5 µM	1.12 µM	> 10 µM	> 10 µM	> 0.3 µM	0.833 µM	> 10 µM	> 20 µM
PANC-04-03 (Pancreatic Carcinoma)	> 10 µM	> 10 µM	> 3 µM	0.286 µM	2.34 µM	> 10 µM	> 0.3 µM	> 1 µM	> 2 µM	> 0.001 µM	> 1 µM	> 0.3 µM	> 3 µM	> 1 µM	> 10 µM	> 10 µM	> 10 µM	0.53 µM	> 1 µM	> 1 µM	> 10 µM	> 10 µM	> 10 µM	> 1 µM	> 10 µM	> 1 µM	> 10 µM	7.66 µM	> 10 µM	> 10 µM	> 10 µM	> 0.3 µM	4.53 µM	> 10 µM	> 20 µM
RF-48 (B-Cell Non-Hodgkin's Lymphoma)	> 10 µM	> 10 µM	1.45 µM	> 1 µM	0.0199 µM	> 10 µM	> 0.3 µM	> 1 µM	> 2 µM	> 0.001 µM	> 1 µM	0.0212 µM	> 3 µM	0.0247 µM	> 10 µM	> 10 µM	> 10 µM	0.132 µM	0.424 µM	> 1 µM	> 10 µM	> 10 µM	> 10 µM	> 1 µM	> 10 µM	> 1 µM	> 10 µM	> 10 µM	> 10 µM	> 10 µM	> 10 µM	0.0827 µM	> 5 µM	> 10 µM	> 20 µM
